Results: patent US20230085307A1, “PYRIDAZINONE COMPOUND AND HERBICIDE” (NISSAN CHEMICAL CORPORATION, priority 2019, published 2023)

Key:
windgrass = test: Test Example 4: herbicidal effect by soil treatment (Table 19, symbol L); assay type: in vivo, windgrass (Apera spica-venti); conditions: 320 g/ha
In short: (§1)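 Soil-surface application: an emulsion agent diluted with water to the predetermined dose is sprayed uniformly over seeds lying under roughly 1.5 cm of sterilized diluvial soil. Boxes stay in a greenhouse at 25° C. to 30° C. Three weeks later, each species is graded on previously defined criteria.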

Chinese sprangletop = test: Test Example 3: herbicidal effect by foliage application, Wagner pot (Table 18, symbol D); assay type: in vivo, chinese sprangletop (Leptochloa chinensis); conditions: 320 g/ha
In short: (§2)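 Plants were sown in alluvial soil held under 0.1–0.5 cm standing water and grown 14 days in a greenhouse at 25–30 °C. An emulsifiable formulation, water-diluted to the set dose, was then sprayed onto the foliage, and effects were scored three weeks later using previously defined criteria.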

Italian ryegrass = test: Test Example 5: herbicidal effect by foliage application, plastic box (Table 20, symbol K); assay type: in vivo, Italian ryegrass (Lolium multiflorum); conditions: foliage application, 320 g/ha
In short: (§3)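 Sow seeds spot-wise in sterilized diluvial soil; cover with ~1.5 cm soil. Grow 14 days in greenhouse, 25° C. to 30° C. Spray foliage with emulsion diluted to predetermined amount. Rate effect after 3 weeks.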

lambsquarters [1] = test: Test Example 4: herbicidal effect by soil treatment (Table 19, symbol O); assay type: in vivo, lambsquarters (Chenopodium album); conditions: 320 g/ha
In short: as §1

barnyard grass [2] = test: Test Example 5: herbicidal effect by foliage application, plastic box (Table 20, symbol H); assay type: in vivo, barnyard grass (Echinochloa crus-galli); conditions: foliage application, 320 g/ha
In short: as §3

barnyard grass [3] = test: Test Example 3: herbicidal effect by foliage application, Wagner pot (Table 18, symbol H); assay type: in vivo, barnyard grass (Echinochloa crus-galli); conditions: 320 g/ha
In short: as §2

persian speedwell = test: Test Example 4: herbicidal effect by soil treatment (Table 19, symbol R); assay type: in vivo, Persian speedwell (Veronica persica); conditions: 320 g/ha
In short: as §1

Japanese bulrush = test: Test Example 1: herbicidal activity, application before weed generation under submerged conditions (Table 16, symbol B); assay type: in vivo, Japanese bulrush (Schoenoplectus juncoides); conditions: 320 g/ha applied herbicide
In short: (§4)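 Submerged Wagner pots (alluvial soil, 4 cm water) sown with weed seeds and planted with 2.5-leaf rice seedlings; emulsifiable concentrate diluted in water applied to water surface on sowing day. Held in greenhouse at 25-30 °C; injury scored 0-5 by herbicidal rate after three weeks.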

lambsquarters [4] = test: Test Example 5: herbicidal effect by foliage application, plastic box (Table 20, symbol O); assay type: in vivo, lambsquarters (Chenopodium album); conditions: foliage application, 320 g/ha
In short: as §3

blackgrass = test: Test Example 5: herbicidal effect by foliage application, plastic box (Table 20, symbol J); assay type: in vivo, blackgrass (Alopecurus myosuroides); conditions: foliage application, 320 g/ha
In short: as §3

velvetleaf [5] = test: Test Example 5: herbicidal effect by foliage application, plastic box (Table 20, symbol M); assay type: in vivo, velvetleaf (Abutilon theophrasti); conditions: foliage application, 320 g/ha
In short: as §3

oval-leafed pondweed = test: Test Example 1: herbicidal activity, application before weed generation under submerged conditions (Table 16, symbol C); assay type: in vivo, oval-leafed pondweed (Monochoria vaginalis); conditions: 320 g/ha applied herbicide
In short: as §4

barnyard grass [6] = test: Test Example 4: herbicidal effect by soil treatment (Table 19, symbol H); assay type: in vivo, barnyard grass (Echinochloa crus-galli); conditions: 320 g/ha
In short: as §1

velvetleaf [7] = test: Test Example 4: herbicidal effect by soil treatment (Table 19, symbol M); assay type: in vivo, velvetleaf (Abutilon theophrasti); conditions: 320 g/ha
In short: as §1

redroot pigweed = test: Test Example 5: herbicidal effect by foliage application, plastic box (Table 20, symbol N); assay type: in vivo, redroot pigweed (Amaranthus retroflexus); conditions: foliage application, 320 g/ha, evaluated three weeks after application
In short: as §3

[8] = evaluated three weeks after application

SMILES | herbicidal effect rating, L: windgrass (windgrass) | herbicidal effect on D (Chinese sprangletop), rating 0-5 (Chinese sprangletop) | effect on Italian ryegrass (K) (Italian ryegrass; 3 weeks after application) | herbicidal effect rating, O: lambsquarters (lambsquarters [1]) | effect on barnyard grass (H) (barnyard grass [2]; 3 weeks after application) | herbicidal effect on H (barnyard grass), rating 0-5 (barnyard grass [3]) | herbicidal effect rating, R: persian speedwell (persian speedwell) | Herbicidal effect on B: Japanese bulrush (grade 0-5) (Japanese bulrush) | effect on lambsquarters (O) (lambsquarters [4]; 3 weeks after application) | effect on blackgrass (J) (blackgrass; 3 weeks after application) | effect on velvetleaf (M) (velvetleaf [5]; 3 weeks after application) | Herbicidal effect on C: oval-leafed pondweed (grade 0-5) (oval-leafed pondweed) | herbicidal effect rating, H: barnyard grass (barnyard grass [6]) | herbicidal effect rating, M: velvetleaf (velvetleaf [7]) | herbicidal effect on K: Italian ryegrass (Italian ryegrass; [8]) | herbicidal effect on N: redroot pigweed (redroot pigweed) | herbicidal effect on H: barnyard grass (barnyard grass [2]; [8]) | herbicidal effect on O: lambsquarters (lambsquarters [4]; [8]) | herbicidal effect on J: blackgrass (blackgrass; [8]) | herbicidal effect on M: velvetleaf (velvetleaf [5]; [8])
Cc1nn(C)c(=O)c(-c2c(-c3ccc(Cl)cc3)sc3ccc(F)cc23)c1O [Compound No. 2-010, 4-(2-(4-chlorophenyl)-5-fluorobenzo[b]thiophen-3-yl)-5-hydroxy-2,6-dimethylpyridazin-3(2H)-one] | 0 (Herbicidal rate of 5% or less (almost no effect)) | 4 (Herbicidal rate of 70% or more and less than 90%) | 5 (Herbicidal rate of 90% or more (almost completely withered)) | 5 (Herbicidal rate of 90% or more (almost completely withered)) | 5 (Herbicidal rate of 90% or more (almost completely withered)) | 5 (Herbicidal rate of 90% or more (almost completely withered)) | 5 (Herbicidal rate of 90% or more (almost completely withered)) | 3 (Herbicidal rate of 40% or more and less than 70%) | 5 (Herbicidal rate of 90% or more (almost completely withered)) | 3 (Herbicidal rate of 40% or more and less than 70%) | 5 (Herbicidal rate of 90% or more (almost completely withered)) | 1 (Herbicidal rate of 5% or more and less than 20%) | 5 (Herbicidal rate of 90% or more (almost completely withered)) | 5 (Herbicidal rate of 90% or more (almost completely withered)) |  |  |  |  |  | 
COc1cc(F)ccc1-c1sc2ccc(Cl)cc2c1-c1c(O)c(C)nn(C)c1=O [Compound No. 2-095, 4-(5-chloro-2-(4-fluoro-2-methoxyphenyl)benzo[b]thiophen-3-yl)-5-hydroxy-2,6-dimethylpyridazin-3(2H)-one] | 3 (Herbicidal rate of 40% or more and less than 70%) | 4 (Herbicidal rate of 70% or more and less than 90%) |  | 5 (Herbicidal rate of 90% or more (almost completely withered)) |  | 5 (Herbicidal rate of 90% or more (almost completely withered)) | 4 (Herbicidal rate of 70% or more and less than 90%) | 0 (Herbicidal rate of 5% or less (almost no effect)) |  |  |  | 0 (Herbicidal rate of 5% or less (almost no effect)) | 4 (Herbicidal rate of 70% or more and less than 90%) | 0 (Herbicidal rate of 5% or less (almost no effect)) | 3 (Herbicidal rate of 40% or more and less than 70%) | 5 (Herbicidal rate of 90% or more (almost completely withered)) | 4 (Herbicidal rate of 70% or more and less than 90%) | 5 (Herbicidal rate of 90% or more (almost completely withered)) | 4 (Herbicidal rate of 70% or more and less than 90%) | 5 (Herbicidal rate of 90% or more (almost completely withered))
